What is called IC50 is the point on the concentration scale where inhibition reaches its midpoint. Higher therefore signals a need for much substance.

Experiment [1] has as its target T1, Xanthine dehydrogenase/oxidase (Bos taurus, UniProt P80457). Description: Inhibition of cow milk xanthine oxidase.
Experiment [2] deals with T1, Xanthine dehydrogenase/oxidase. Description: Inhibition of cow milk xanthine oxidase by Lineweaver-Burke plot analysis. To be noted: read-out: Activity.

T1 sequence (P80457 whole entry): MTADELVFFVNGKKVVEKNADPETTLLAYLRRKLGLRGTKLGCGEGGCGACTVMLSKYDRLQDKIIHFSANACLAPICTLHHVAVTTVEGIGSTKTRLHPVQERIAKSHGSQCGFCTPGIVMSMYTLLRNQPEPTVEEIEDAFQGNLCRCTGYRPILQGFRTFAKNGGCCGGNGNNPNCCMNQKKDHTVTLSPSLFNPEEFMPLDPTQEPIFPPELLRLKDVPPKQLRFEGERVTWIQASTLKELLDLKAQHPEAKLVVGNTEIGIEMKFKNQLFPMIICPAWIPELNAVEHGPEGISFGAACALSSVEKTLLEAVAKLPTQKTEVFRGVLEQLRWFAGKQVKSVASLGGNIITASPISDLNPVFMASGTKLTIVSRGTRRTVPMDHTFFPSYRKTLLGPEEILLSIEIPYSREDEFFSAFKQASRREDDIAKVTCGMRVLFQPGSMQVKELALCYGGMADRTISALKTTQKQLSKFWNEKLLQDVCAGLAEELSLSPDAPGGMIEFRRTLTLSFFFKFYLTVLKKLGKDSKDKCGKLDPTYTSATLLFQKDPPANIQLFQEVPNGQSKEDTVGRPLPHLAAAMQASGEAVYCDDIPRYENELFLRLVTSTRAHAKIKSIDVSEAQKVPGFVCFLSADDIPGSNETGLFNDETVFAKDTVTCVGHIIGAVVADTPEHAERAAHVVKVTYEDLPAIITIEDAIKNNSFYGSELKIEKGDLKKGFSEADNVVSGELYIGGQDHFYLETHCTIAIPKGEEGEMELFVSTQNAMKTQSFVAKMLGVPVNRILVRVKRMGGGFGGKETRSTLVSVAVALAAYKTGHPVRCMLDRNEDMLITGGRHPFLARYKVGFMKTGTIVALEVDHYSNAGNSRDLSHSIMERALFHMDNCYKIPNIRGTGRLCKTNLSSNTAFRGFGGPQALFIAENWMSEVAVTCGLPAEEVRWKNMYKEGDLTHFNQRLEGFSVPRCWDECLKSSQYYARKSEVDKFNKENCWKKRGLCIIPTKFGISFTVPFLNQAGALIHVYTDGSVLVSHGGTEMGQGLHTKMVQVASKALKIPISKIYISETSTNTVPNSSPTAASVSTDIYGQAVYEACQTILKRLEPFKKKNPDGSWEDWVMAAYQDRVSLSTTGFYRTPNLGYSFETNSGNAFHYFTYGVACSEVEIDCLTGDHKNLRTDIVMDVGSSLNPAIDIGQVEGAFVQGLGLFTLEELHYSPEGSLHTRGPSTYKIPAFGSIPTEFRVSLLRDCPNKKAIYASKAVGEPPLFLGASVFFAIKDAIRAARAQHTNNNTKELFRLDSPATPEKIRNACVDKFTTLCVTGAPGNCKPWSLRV

Compound `O=C(OC[C@H]1O[C@@H](OC(=O)c2cc(O)c(O)c(O)c2)[C@H](OC(=O)c2cc(O)c(O)c(O)c2)[C@@H](OC(=O)c2cc(O)c(O)c(O)c2)[C@@H]1OC(=O)c1cc(O)c(O)c(O)c1)c1cc(O)c(O)c(O)c1` [PENTAGALLOYL GLUCOSE] yielded an IC50 in experiment [1] of 3.2 µM. Moreover, the Ki in experiment [2] worked out at 2.12 µM.

Values taken from ChEMBL document CHEMBL1147277, “Pentagalloylglucose, a xanthine oxidase inhibitor from a Paraguayan crude drug, "Molle-i" (Schinus terebinthifolius)” (J Nat Prod, 1989).
